According to BindingDB's records for patent US20250195475 (Inventisbio, 2025):

Molecular target: Cyclin-dependent kinase 2/G1/S-specific cyclin-E1 (Homo sapiens, UniProt P24941+P24864)
Assay: TR-FRET Assay
Protocol: Compound Preparation. Dissslove the compounds into DMSO solution to make 10 mM DMSO stock. Serially dilute the stock solution from highest concentration down to lowest in DMSO to make the compound stock plate (100× stock plates). To make 5× compound intermediate plate, add 38 μL of assay buffer (50 mM HEPES, pH 7.5, 0.05 mg/mL BSA, 10 mM MgCl2, 1 mM EGTA, 0.01% Tween-20, 2 mM DTT) into each well of the V-bottom plate; then transfer 2 μL of the stock compound solution of each concentration from the compound stock plate (100× stock), and mix well. Enzyme reaction. Transfer 2 μL compound from 5× intermediate plate into assay plate, then add 4 μL/well 2.5× Enzyme mix to assay plate, incubation for 10 min at room temperature. For positive control wells, add 4 μL/well assay buffer instead of Enzyme mix. Then add 4 μL/well 2.5× Substrate mix to assay plate, and incubation at 25° C. for 30 min at room temperature. After reaction, 10 μL 2× Detection mix (final 15 mM EDTA, 1× LANCE Detection Buffer, 0.5 nM Detection antibody) was added and incubated for 1 h prior to detection with excitation and emission at 320 and 665 nm (Tecan Spark TR-FRET mode Tecan).

## COCc1cc(C(=O)Nc2cc([C@H]3CC[C@@H](OC(=O)N4CCC5(CCC5)C4)C3)[nH]n2)n(C)n1 [US20250195475, Example 6]
  IC50: 0.8 nM
